In US8124624B2, “Substituted sulfonamide compounds” (Gruenenthal GmbH, priority 2008, dated 2012):
Read-outs that look alike come from different tables or passages of the source.

Key:
[1] = biological target: T1, human B1R (Homo sapiens, UniProt P46663); assay: FLIPR Ca2+ influx assay, B1R antagonism, human (hB1R CHO K1 cells); assay type: cell-based
T1 construct: expressed in transfected cells; host or cells: CHO K1 cells (hB1R cells)
T1 sequence (P46663 1-353): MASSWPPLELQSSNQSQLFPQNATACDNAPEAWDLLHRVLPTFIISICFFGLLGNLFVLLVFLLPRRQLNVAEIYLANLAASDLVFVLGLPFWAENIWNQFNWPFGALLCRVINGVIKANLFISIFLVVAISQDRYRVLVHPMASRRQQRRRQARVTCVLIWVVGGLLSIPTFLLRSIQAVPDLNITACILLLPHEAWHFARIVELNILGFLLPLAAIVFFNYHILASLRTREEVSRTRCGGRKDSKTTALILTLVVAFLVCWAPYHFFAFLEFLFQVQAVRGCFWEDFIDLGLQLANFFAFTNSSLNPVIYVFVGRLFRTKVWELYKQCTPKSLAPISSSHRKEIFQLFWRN
In short: (§1)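 CHO K1 cells stably expressing human or rat B1R were loaded with Fluo-4, and Ca^2+ fluorescence was read on a FLIPR. After 10–20 min with test substance, agonist was added at EC80: Lys-Des-Arg^9-bradykinin for hB1R, Des-Arg^9-bradykinin for rB1R. % inhibition is relative to maximal inhibition; IC50 from multiple concentrations, n=2–3, N≥2.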

[2] = biological target: T2, B1R of the rat (Rattus norvegicus, UniProt P97583); assay: FLIPR Ca2+ influx assay, B1R antagonism, rat (rB1R CHO K1 cells); assay type: cell-based
T2 construct: expressed in transfected cells; host or cells: CHO K1 cells (rB1R cells)
T2 sequence (P97583 1-337): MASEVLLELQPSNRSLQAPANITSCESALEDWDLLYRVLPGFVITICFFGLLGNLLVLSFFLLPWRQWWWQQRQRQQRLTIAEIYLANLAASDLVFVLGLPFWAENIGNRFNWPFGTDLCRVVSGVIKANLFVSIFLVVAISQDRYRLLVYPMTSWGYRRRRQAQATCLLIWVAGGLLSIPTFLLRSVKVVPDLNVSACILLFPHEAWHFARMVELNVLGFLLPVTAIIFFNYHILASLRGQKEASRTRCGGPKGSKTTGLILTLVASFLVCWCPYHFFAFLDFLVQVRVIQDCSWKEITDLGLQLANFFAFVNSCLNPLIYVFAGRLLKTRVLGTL
In short: as §1

[3] = test substance 10 μM, CHO K1 cells stably transfected with human B1R, agonist Lys-Des-Arg9-bradykinin at EC80, % inhibition compared with maximum achievable inhibition, read-out: B1R antagonism, human [10 μM] % inhibition
[4] = test substance 10 μM, CHO K1 cells stably transfected with rat B1R, agonist Des-Arg9-bradykinin at EC80, % inhibition compared with maximum achievable inhibition, read-out: B1R antagonism, rat [10 μM] % inhibition
[5] = CHO-K1, read-out: B1R antagonism, human [10 μM] % inhibition
[6] = CHO-K1, read-out: B1R antagonism, rat [10 μM] % inhibition
[7] = test substance 10 μM, CHO K1 cells stably transfected with human B1R, agonist Lys-Des-Arg9-bradykinin at EC80, % inhibition compared with maximum achievable inhibition
[8] = test substance 10 μM, CHO K1 cells stably transfected with rat B1R, agonist Des-Arg9-bradykinin at EC80, % inhibition compared with maximum achievable inhibition

Row | SMILES | inhibition at 10 µM [1, 3] | inhibition at 10 µM [2, 4] | also measured
1 | CN(C)CCC1(c2cccnc2)CCN(C(=O)CC(NS(=O)(=O)c2ccc3ccccc3c2)c2ccccc2)CC1 (stereo not shown) [Example 7, N-(3-(4-(2-(Dimethylamino)ethyl)-4-(pyridin-3-yl)piperidin-1-yl)-3-oxo-1-phenylpropyl)naphthalene-2-sulfonamide] | 89% | 37% | 
2 | COc1cc(C)c(S(=O)(=O)N2CCCCC2COCC(=O)N2CCC(CCN3CCCC3)(c3cccnc3)CC2)c(C)c1 (stereo not shown) [Example 2, 2-((1-(4-Methoxy-2,6-dimethylphenylsulfonyl)piperidin-2-yl)methoxy)-1-(4-(pyridin-3-yl)-4-(2-(pyrrolidin-1-yl)ethyl)piperidin-1-yl)ethanone] |  |  | inhibition at 10 µM [1, 5]: 103%; inhibition at 10 µM [2, 6]: 102%
3 | COc1cc(C)c(S(=O)(=O)N2CCCCC2CCCC(=O)N2CCC(CCCN3CCCC3)(c3cccnc3)CC2)c(C)c1 (stereo not shown) [Example 61, 4-[1-[(4-Methoxy-2,6-dimethyl-phenyl)sulfonyl]-piperidin-2-yl]-1-[4-pyridin-3-yl-4-(3-pyrrolidin-1-yl-propyl)-piperidin-1-yl]-butan-1-one] |  |  | B1R antagonism, human [10 μM] % inhibition [1, 7]: 100%; B1R antagonism, rat [10 μM] % inhibition [2, 8]: 103%
4 | O=C(CC1CCCCN1S(=O)(=O)c1cccc(C(F)(F)F)c1)N1CCC(CCN2CCCC2)(c2cccnc2)CC1 (stereo not shown) [Example 4, 1-(4-(Pyridin-3-yl)-4-(2-(pyrrolidin-1-yl)ethyl)piperidin-1-yl)-2-(1-(3-(trifluoromethyl)phenylsulfonyl)piperidin-2-yl)ethanone] |  |  | inhibition at 10 µM [1, 5]: 103%; inhibition at 10 µM [2, 6]: 102%
5 | O=C(COCC1CCc2ccccc2N1S(=O)(=O)c1ccc(Cl)c(Cl)c1)N1CCC(CCN2CCCC2)(c2cccnc2)CC1 (stereo not shown) [Example 6, 2-((1-(3,4-Dichlorophenylsulfonyl)-1,2,3,4-tetrahydroquinolin-2-yl)methoxy)-1-(4-(pyridin-3-yl)-4-(2-(pyrrolidin-1-yl)ethyl)piperidin-1-yl)ethanone] | 100% | 85% | 
6 | O=C(CC(NS(=O)(=O)c1ccc2ccccc2c1)c1ccccc1)N1CCC(CCCN2CCCC2)(c2cccnc2)CC1 (stereo not shown) [Example 17, N-(3-Oxo-1-phenyl-3-(4-(pyridin-3-yl)-4-(3-(pyrrolidin-1-yl)propyl)piperidin-1-yl)propyl)naphthalene-2-sulfonamide] | 94% | 81% | 
7 | O=C(COCC1CCCCN1S(=O)(=O)c1ccccc1C(F)(F)F)N1CCC(CCCN2CCCC2)(c2cccnc2)CC1 (stereo not shown) [Example 42, 1-[4-Pyridin-3-yl-4-(3-pyrrolidin-1-yl-propyl)-piperidin-1-yl]-2-[[1-[[2-(trifluoromethyl)-phenyl]sulfonyl]-piperidin-2-yl]-methoxy]-ethanone] |  |  | B1R antagonism, human [10 μM] % inhibition [1, 7]: 100%; B1R antagonism, rat [10 μM] % inhibition [2, 8]: 102%
8 | Cc1cc(S(=O)(=O)N2CCCCC2CCC(=O)N2CCC(CCN(C)C)(c3cccnc3)CC2)c(C)cc1Cl (stereo not shown) [Example 11, 3-(1-(4-Chloro-2,5-dimethylphenylsulfonyl)piperidin-2-yl)-1-(4-(2-(dimethylamino)ethyl)-4-(pyridin-3-yl)piperidin-1-yl)propan-1-one] | 102% | 101% | 
9 | CN(C)CCCC1(c2cccnc2)CCN(C(=O)CC(NS(=O)(=O)c2ccc3ccccc3c2)c2ccccc2)CC1 (stereo not shown) [Example 20, N-(3-(4-(3-(Dimethylamino)propyl)-4-(pyridin-3-yl)piperidin-1-yl)-3-oxo-1-phenylpropyl)naphthalene-2-sulfonamide] | 57% | 94% | 
10 | O=C(CC1CCCCN1S(=O)(=O)c1cccc(C(F)(F)F)c1)N1CCC(CCCN2CCCC2)(c2cccnc2)CC1 (stereo not shown) [Example 14, 1-(4-(Pyridin-3-yl)-4-(3-(pyrrolidin-1-yl)propyl)piperidin-1-yl)-2-(1-(3-(trifluoromethyl)phenylsulfonyl)piperidin-2-yl)ethanone] | 35% | 64% | 

Now from value to molecule, other results behind:

Row | inhibition at 10 µM [1, 3] | inhibition at 10 µM [2, 4] | SMILES | also measured
11 | 38% | 60% | CN(C)CCCC1(c2cccnc2)CCN(C(=O)CC2CCCCN2S(=O)(=O)c2cccc(C(F)(F)F)c2)CC1 (stereo not shown) [Example 24, 1-(4-(3-(Dimethylamino)propyl)-4-(pyridin-3-yl)piperidin-1-yl)-2-(1-(3-(trifluoromethyl)phenylsulfonyl)piperidin-2-yl)ethanone] | 
12 | 100% | 104% | COc1cc(C)c(S(=O)(=O)N2CCCCC2CCCC(=O)N2CCC(CCCN3CCCC3)(c3cccnc3)CC2)c(C)c1 (stereo not shown) [Example 60, 4-[1-[(4-Methoxy-2,6-dimethyl-phenyl)sulfonyl]-piperidin-2-yl]-1-[4-pyridin-3-yl-4-(3-pyrrolidin-1-yl-propyl)-piperidin-1-yl]-butan-1-one] | 
13 | 97% | 63% | COc1cc(C)c(S(=O)(=O)N2CCCC[C@H]2COCC(=O)N2CCC(CN3CCCC3)(c3cccnc3)CC2)c(C)c1 [Example 25, (S)-2-((1-(4-Methoxy-2,6-dimethylphenylsulfonyl)piperidin-2-yl)methoxy)-1-(4-(pyridin-3-yl)-4-(pyrrolidin-1-ylmethyl)piperidin-1-yl)ethanone] | 
14 | 100% | 103% | COc1cc(C)c(S(=O)(=O)N(CCOCC(=O)N2CCC(CCCN3CCCC3)(c3cccnc3)CC2)Cc2ccccc2)c(C)c1 [Example 37, N-Benzyl-4-Methoxy-2,6-dimethyl-N-[2-[2-oxo-2-[4-pyridin-3-yl-4-(3-pyrrolidin-1-yl-propyl)-piperidin-1-yl]-ethoxy]-ethyl]-benzenesulfonic acid amide] | 
